Measured values published in ChEMBL document CHEMBL1158744, “Leptolide, a new furanocembranolide diterpene from Leptogorgia alba” (J Nat Prod, 2005).

System: Plasmodium falciparum
Experiment: Antiplasmodial activity against Plasmodium falciparum W2 after 48 hrs in PicoGreen microfluorimetry
Type: functional, organism-based
Conditions: W2, 48 h

SMILES	IC50 [µM]
C=C(C)[C@@H]1CC2=C(C=O)C=C(O2)[C@@H]2O[C@@]2(C)C[C@H]2OC(=O)[C@@]3(O[C@H]23)[C@@H](OC(C)=O)C1 [LOPHOTOXIN]	74
C=C(C)[C@H]1CC2=C(C(=O)OC)C=C(O2)[C@H]2O[C@]2(C)C[C@H]2C=C(C(=O)O2)[C@H](OC(C)=O)C1	109
C=C(C)[C@H]1CCC2=C[C@@H](C[C@]3(C)O[C@H]3C3=CC(C=O)=C(C1)O3)OC2=O [PUKALIDE ALDEHYDE]	134

Results, then the compound that gave them:

IC50 [µM]	SMILES
50	C=C(C)[C@@H]1CCC2=C[C@@H](OC2=O)[C@@H](C(=C)C)C2=CC(C(=O)OC)=C(C1)O2 [DEOXYPSEUDOPTEROLIDE]
105	C=C(C)[C@H]1CC2=C(C(=O)OC)C=C(O2)[C@H]2O[C@]2(C)C[C@@H]2OC(=O)[C@]3(O[C@@H]23)[C@H](OC(C)=O)C1 [LOPHOLIDE]
